{"source": "PubChem BioAssay AID743368", "data": [{"target": "Acetylcholine receptor subunit alpha (Mus musculus) (UniProt P04756)", "sequence (P04756 whole entry, looked up)": "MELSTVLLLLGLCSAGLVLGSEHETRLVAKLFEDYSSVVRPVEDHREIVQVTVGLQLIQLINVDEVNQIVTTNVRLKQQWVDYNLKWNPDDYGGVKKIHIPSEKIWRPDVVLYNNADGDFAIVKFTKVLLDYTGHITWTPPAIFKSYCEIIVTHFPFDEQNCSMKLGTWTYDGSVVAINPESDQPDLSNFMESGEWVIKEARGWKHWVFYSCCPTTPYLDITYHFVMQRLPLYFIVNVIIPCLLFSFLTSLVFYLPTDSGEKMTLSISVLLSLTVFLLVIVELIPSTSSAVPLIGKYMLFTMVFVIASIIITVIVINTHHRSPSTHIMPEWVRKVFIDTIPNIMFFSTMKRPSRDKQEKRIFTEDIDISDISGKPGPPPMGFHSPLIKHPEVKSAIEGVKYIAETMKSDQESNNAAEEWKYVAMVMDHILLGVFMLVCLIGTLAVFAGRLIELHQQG", "experiment": "blockade of mouse muscle nicotinic receptor currents – cell-based, Mus musculus, Xenopus oocytes (AID 743368)", "details": "two-electrode voltage clamp, ACh-evoked current", "units": {"IC50": "µM"}, "values": [{"smiles": "COn1c(Br)c2c3c(cccc31)[C@H]1C[C@@H](C)CN(C)[C@@H]1C2", "IC50": 3.7}, {"smiles": "COc1cc(CCN)c2c(c1OC)SSSSS2", "IC50": 8.7}, {"smiles": "CC/C=C/[C@@H]1CC[C@]2(C[C@H]3CC[C@H]4[C@@H](C(=O)OC(CC)CCCCCCCCCCCCC[C@@H]5O[C@](O)(CCN)[C@H](O)N(CCCN)C5=O)[C@@]5(CCC[C@H](C)O5)NC(=[N+]34)N2)O1", "note": "(stereo partly drawn)", "IC50": 4.1}]}]}
